The results in this text go back to patent US8158625B2, “Bicyclic indole-pyrimidine PI3K inhibitor compounds selective for P110 delta, and methods of use” (Genentech, Inc., priority 2009, dated 2012).

pIC50: −log10 of the molar value.

The target of one experiment is T1, p110 alpha (Homo sapiens, UniProt P42336).
T1 construct: purchased Upstate Group, Millipore; Dundee, UK
Kind of experiment: PI3K isoform inhibition assay (fluorescence polarization), p110 alpha, used for delta/alpha selectivity. Particulars: ratio of biochemical IC50 values. The method, then: (§1) PI3K enzymatic activity was assayed by measuring the amount of product phosphatidylinositol 3,4,5-phosphate (PIP3) formed from substrate 4,5 phosphatidylinositol 4,5-phosphate (PIP2) using a fluorescence polarization displacement assay. The decrease in fluorescence polarization of a fluorescent PIP3 probe is measured as it is displaced from a PIP3-binding protein GRP-1 detector by PI3K-catalyzed product. Assays were conducted in 384-well black Proxiplates in the presence of 10 mM Tris (pH 7.5), 50 mM NaCl, 4 mM MgCl2, 5% glycerol, 25 μM ATP, 10 μM PIP2 (Echelon Biosciences), 0.05% 3-[(3-cholamidopropyl)dimethylammonio]-1-propanesulfonate, 1 mM dithiothreitol, and 2% DMSO. The kinase reactions were initiated by the addition of 40 ng/mL p110α/p85α, 300 ng/mL p110β/p85α, 40 ng/mL p110γ, or 40 ng/mL p110δ/p85α (Upstate Group, Millipore; Dundee, UK), and 10 μM PIP2 (Echelon Biosciences) to the wells. The reactions were stopped at timepoints that yielded a fixed change in fluorescence polarization consistent with initial rate conditions (typically 30 minutes), by the addition of 12.5 mM EDTA, 100 nM GRP-1 detector, and 5 nM tetramethylrhodamine-labeled PIP3 (TAMRA-PIP3; Echelon Biosciences). After 60 minutes of incubation at room temperature to allow equilibration of labeled and unlabeled PIP3 binding, the parallel and perpendicular components of the fluorescence emissions from each sample were measured at an excitation wavelength of 530 nm and an emission wavelength of 590 nm using an Envision fluorescent plate reader with a rhodamine filter (PerkinElmer Life and Analytical Sciences; Wellesley, Mass.). The assay is capable of detecting 0.1-2.0 μM PIP3 product. The IC50 values were obtained by fitting the dose-dependent inhibition data to a 4-parameter equation using Assay Explorer software (MDL, San Ramon, Calif.). […]
The same protocol was used to establish IC50 values for p110α (alpha) PI3K binding. […]

Experiment [1] relates to production of CD69 by B lymphocytes in human whole blood activated with goat F(ab')2 anti-human IgM. Description: CD69 Whole Blood Assay. The class given is cell-based. Particulars: Lymphocyte, anti-IgM stimulated, CD69 positive of CD20 positive cells, 20 hours. An excerpt:
There is good evidence that B-cells play a key role in the pathogenesis of autoimmune and/or inflammatory disease. Protein-based therapeutics that deplete B cells such as Rituxan are effective against autoantibody-driven inflammatory diseases such as rheumatoid arthritis (Rastetter et al. (2004) Annu Rev Med 55:477). CD69 is the early activation marker in leukocytes including T cells, thymocytes, B cells, NK cells, neutrophils, and eosinophils. The CD69 human whole blood assay (Example 903) determines the ability of compounds to inhibit the production of CD69 by B lymphocytes in human whole blood activated by crosslinking surface IgM with goat F(ab′)2 anti-human IgM.
Human blood is obtained from healthy volunteers, with the following restrictions: 1 week drug-free, non-smokers. Blood (approximately 20 mls to test 8 compounds) is collected by venipuncture into Vacutainer tubes with sodium heparin.
Solutions of Formula I compounds at 1000 or 2000 μM in PBS (20×), are diluted by three-fold serial dilutions in 10% DMSO in PBS for a nine point dose-response curve. An aliquot of 5.5 μl of each compound is added in duplicate to a 2 ml 96-well plate; 5.5 μl of 10% DMSO in PBS is added as control and no-stimulus wells. Human whole blood-HWB (100 μl) is added to each well. After mixing the plates are incubated at 37° C., 5% CO2, 100% humidity for 30 minutes. Goat F(ab′)2 anti-human IgM (10 μl of a 500 μg/ml solution, 50 μg/ml final) is added to each well (except the no-stimulus wells) with mixing and the plates are incubated for an additional 20 hours. At the end of the 20 hour incubation, samples are incubated with florescent labeled antibodies for 30 minutes, at 37° C., 5% CO2, 100% humidity. Include induced control, unstained and single stains for compensation adjustments and initial voltage settings. Samples are then lysed with Pharmingen Lyse according to the manufacturer's instructions. Samples are then transferred to a 96 well plate suitable to be run on the AMS 96 well system on the BD Calibur FACs machine. Data acquired and Mean Fluorescence Intensity values were obtained using Cell Quest Software. Results are initially analyzed by FACS analysis software (Flow Jo). […] The IC50 values are calculated by ActivityBase using Xlfit version 3, equation 201.

Another experiment has as its target T2, p110 delta (Homo sapiens, UniProt O00329).
T2 construct: purchased Upstate Group, Millipore; Dundee, UK
Kind of experiment: PI3K isoform inhibition assay (fluorescence polarization), p110 delta. As to conditions: p110 delta binding IC50, Example 901. The class given is biochemical. The method, then:
as §1
Recombinant PI3K p110 isoforms alpha, beta, and delta may be prepared and purified according to US 2008/0275067 from recombinant PI3K heterodimeric complexes consisting of a p110 catalytic subunit and a p85 regulatory subunit overexpressed using the BAC-TO-BAC® HT baculovirus expression system (GIBCO/BRL), and then purified for use in biochemical assays. The four Class I PI 3-kinases are cloned into baculovirus vectors as follows:
p110 delta: A FLAG™-tagged (Eastman Kodak Co., U.S. Pat. No. 4,703,004; U.S. Pat. No. 4,782,137; U.S. Pat. No. 4,851,341) version of human p110.delta (Chantry et al., J. Biol. Chem. (1997) 272:19236-41) is subcloned using standard recombinant DNA techniques into the BamH1-Xba1 site of the insect cell expression vector pFastbac HTb (Life Technologies, Gaithersburg, Md.), such that the clone is in frame with the His tag of the vector.
(In general: In fluorescence polarisation assays a small probe gives low polarisation when free and higher when bound to something large.)

T2 sequence (O00329 whole entry): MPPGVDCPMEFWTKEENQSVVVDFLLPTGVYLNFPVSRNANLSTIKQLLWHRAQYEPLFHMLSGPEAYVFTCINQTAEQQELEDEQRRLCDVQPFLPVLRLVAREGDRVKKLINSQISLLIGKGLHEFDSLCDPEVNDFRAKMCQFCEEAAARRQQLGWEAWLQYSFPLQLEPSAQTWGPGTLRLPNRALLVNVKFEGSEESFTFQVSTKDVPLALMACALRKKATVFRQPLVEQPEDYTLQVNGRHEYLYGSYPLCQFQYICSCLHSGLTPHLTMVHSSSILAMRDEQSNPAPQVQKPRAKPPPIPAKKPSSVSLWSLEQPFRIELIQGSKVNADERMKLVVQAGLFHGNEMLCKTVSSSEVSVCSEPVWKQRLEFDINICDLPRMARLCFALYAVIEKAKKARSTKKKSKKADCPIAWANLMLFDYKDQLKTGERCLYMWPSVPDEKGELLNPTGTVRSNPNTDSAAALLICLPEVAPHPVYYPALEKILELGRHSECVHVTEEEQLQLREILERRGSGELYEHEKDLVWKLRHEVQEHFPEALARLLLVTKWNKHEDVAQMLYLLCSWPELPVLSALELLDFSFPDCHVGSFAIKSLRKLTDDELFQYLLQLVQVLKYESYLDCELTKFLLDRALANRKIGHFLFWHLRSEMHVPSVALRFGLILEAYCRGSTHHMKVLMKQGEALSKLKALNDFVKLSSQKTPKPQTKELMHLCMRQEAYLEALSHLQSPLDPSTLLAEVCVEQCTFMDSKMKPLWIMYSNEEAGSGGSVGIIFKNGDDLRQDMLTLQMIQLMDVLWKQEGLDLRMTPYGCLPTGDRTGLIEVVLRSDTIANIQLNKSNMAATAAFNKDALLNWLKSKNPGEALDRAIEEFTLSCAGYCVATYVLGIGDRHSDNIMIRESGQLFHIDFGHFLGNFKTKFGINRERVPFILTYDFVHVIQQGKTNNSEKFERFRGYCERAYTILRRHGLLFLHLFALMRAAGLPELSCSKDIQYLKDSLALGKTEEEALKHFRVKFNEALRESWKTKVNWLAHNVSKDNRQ
T2 sequence (P27986 whole entry partner): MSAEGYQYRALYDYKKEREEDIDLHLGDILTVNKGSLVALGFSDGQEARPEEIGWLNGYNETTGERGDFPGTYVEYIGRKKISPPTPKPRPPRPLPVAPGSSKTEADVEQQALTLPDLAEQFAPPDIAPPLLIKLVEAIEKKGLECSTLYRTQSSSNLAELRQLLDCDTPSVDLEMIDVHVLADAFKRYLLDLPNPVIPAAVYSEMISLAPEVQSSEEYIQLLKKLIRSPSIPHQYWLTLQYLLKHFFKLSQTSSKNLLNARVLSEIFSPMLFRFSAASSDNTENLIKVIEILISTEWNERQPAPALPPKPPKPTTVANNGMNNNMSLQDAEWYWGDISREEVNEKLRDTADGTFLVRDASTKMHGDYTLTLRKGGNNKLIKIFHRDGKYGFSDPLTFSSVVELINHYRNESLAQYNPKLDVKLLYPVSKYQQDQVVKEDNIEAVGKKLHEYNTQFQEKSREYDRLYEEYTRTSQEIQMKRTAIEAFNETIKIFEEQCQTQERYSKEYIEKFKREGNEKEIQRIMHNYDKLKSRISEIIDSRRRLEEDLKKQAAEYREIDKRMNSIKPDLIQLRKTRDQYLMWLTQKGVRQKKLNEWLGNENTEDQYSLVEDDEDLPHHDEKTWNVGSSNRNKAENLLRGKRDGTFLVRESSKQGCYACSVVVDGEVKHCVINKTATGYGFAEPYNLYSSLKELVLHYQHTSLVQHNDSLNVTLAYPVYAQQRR
T1 sequence (P42336 whole entry): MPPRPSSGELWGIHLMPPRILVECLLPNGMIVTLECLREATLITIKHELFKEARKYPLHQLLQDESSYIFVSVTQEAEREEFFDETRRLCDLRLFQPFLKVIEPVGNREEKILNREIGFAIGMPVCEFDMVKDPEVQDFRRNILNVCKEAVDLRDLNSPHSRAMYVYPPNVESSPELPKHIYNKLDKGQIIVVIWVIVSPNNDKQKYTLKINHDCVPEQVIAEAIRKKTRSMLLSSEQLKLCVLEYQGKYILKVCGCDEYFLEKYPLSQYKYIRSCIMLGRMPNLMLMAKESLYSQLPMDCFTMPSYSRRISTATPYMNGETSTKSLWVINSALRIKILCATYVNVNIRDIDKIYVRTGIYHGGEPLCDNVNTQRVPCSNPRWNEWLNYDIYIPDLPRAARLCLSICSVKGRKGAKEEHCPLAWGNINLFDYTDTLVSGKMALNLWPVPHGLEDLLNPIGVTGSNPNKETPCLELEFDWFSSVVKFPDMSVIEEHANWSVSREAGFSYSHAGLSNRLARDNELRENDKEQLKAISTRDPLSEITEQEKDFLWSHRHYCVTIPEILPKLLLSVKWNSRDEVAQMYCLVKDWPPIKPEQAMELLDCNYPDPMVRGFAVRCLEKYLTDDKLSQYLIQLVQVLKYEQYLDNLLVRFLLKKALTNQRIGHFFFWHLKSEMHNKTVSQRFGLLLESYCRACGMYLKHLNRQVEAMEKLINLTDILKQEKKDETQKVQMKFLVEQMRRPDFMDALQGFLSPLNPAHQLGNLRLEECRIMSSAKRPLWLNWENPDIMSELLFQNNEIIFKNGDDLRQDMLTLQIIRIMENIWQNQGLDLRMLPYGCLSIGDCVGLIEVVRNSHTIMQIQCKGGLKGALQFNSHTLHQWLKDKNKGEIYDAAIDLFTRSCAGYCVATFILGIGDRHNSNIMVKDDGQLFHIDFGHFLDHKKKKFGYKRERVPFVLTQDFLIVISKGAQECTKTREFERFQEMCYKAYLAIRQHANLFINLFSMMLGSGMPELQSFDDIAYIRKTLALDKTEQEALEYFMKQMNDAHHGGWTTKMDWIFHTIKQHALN
T1 sequence (P27986 whole entry partner): as the sequence (P27986 whole entry partner) above

One may read the pIC50 as the negative decadic logarithm of the IC50, by convention in mol/L. In the case of `CN(C)C1CCN(Cc2cc3nc(-c4c[nH]c5ccccc45)nc(N4CCOCC4)c3s2)CC1` [Compound 101, 1-((2-(1H-indol-3-yl)-4-morpholinothieno[3,2-d]pyrimidin-6-yl)methyl)-N,N-dimethylpiperidin-4-amine], at p110 alpha, the “IC50 p110 alpha/IC50 p110 delta” value came out at 101. For the same molecule, the negative logarithm of the IC50 (pIC50) in experiment [1] was 7.76.
As to `CN(C)C1CCN(Cc2cc3nc(N4CCc5ccccc54)nc(N4CCOCC4)c3s2)CC1` [Compound 102, 1-((2-(indolin-1-yl)-4-morpholinothieno[3,2-d]pyrimidin-6-yl)methyl)-N,N-dimethylpiperidin-4-amine], the “IC50 p110 alpha/IC50 p110 delta” value at p110 alpha turned out to be 34. Further, the pIC50 was 5.77 in experiment [1] and 7.68 on p110 delta.
Take `CN(C)C1CCN(Cc2cc3nc(-n4ccc5ccccc54)nc(N4CCOCC4)c3s2)CC1` [Compound 103, 1-((2-(1H-indol-1-yl)-4-morpholinothieno[3,2-d]pyrimidin-6-yl)methyl)-N,N-dimethylpiperidin-4-amine]: the “IC50 p110 alpha/IC50 p110 delta” value at p110 alpha is recorded as 54. The molecule also had a negative-log IC50 (pIC50) on p110 delta of 7.98.
As for `Cn1c(CN2CCC(N3CCOCC3)CC2)nc2c(N3CCOCC3)nc(-c3c[nH]c4ccccc34)nc21` [Compound 104, 4-(1-((2-(1H-indol-3-yl)-9-methyl-6-morpholino-9H-purin-8-yl)methyl)piperidin-4-yl)morpholine], the “IC50 p110 alpha/IC50 p110 delta” value on p110 alpha was 105. Also, the results for the pIC50 (in experiment [1]; on p110 delta) were 6.21 and 7.32, respectively.
As for `CN(C)C1CCN(Cc2cc3nc(-c4c[nH]c5ccc(F)cc45)nc(N4CCOCC4)c3s2)CC1` [Compound 113, 1-((2-(5-fluoro-1H-indol-3-yl)-4-morpholinothieno[3,2-d]pyrimidin-6-yl)methyl)-N,N-dimethylpiperidin-4-amine], the “IC50 p110 alpha/IC50 p110 delta” value on p110 alpha is given as 13. Moreover, at p110 delta, the pIC50 was 6.99.
For `O=C1COC2(CCN(Cc3cc4nc(-c5c[nH]c6ccccc56)nc(N5CCOCC5)c4s3)CC2)CN1` [Compound 116, 9-((2-(1H-indol-3-yl)-4-morpholinothieno[3,2-d]pyrimidin-6-yl)methyl)-1-oxa-4,9-diazaspiro[5.5]undecan-3-one] the same measures were 25 and 7.26.
On to `c1ccc2c(-c3nc(N4CCOCC4)c4nc(CN5CC(N6CCOCC6)C5)sc4n3)c[nH]c2c1` [Compound 117, 4-(5-(1H-indol-3-yl)-2-((3-morpholinoazetidin-1-yl)methyl)thiazolo[5,4-d]pyrimidin-7-yl)morpholine], for which, at p110 alpha, the “IC50 p110 alpha/IC50 p110 delta” value is on record as 198. The pIC50 in experiment [1] was 7.08; at p110 delta, 8.70.
The like results for `Cc1cc2cc(F)ccc2n1-c1nc(N2CCOCC2)c2sc(CN3CCC(N(C)C)CC3)cc2n1` [Compound 119, 1-((2-(5-fluoro-2-methyl-1H-indol-1-yl)-4-morpholinothieno[3,2-d]pyrimidin-6-yl)methyl)-N,N-dimethylpiperidin-4-amine] were, in that order, 68, 6.02 and 7.63.
Turning to `CN(C)[C@@H]1CCN(Cc2nc3c(N4CCOCC4)nc(-c4c[nH]c5ccccc45)nc3n2C)C[C@@H]1F` [Compound 122, (3S,4R)-1-((2-(1H-indol-3-yl)-9-methyl-6-morpholino-9H-purin-8-yl)methyl)-3-fluoro-N,N-dimethylpiperidin-4-amine], on p110 alpha, the “IC50 p110 alpha/IC50 p110 delta” value was 96. The pIC50 in experiment [1] was 6.73; on p110 delta it was 8.12.
Regarding `Cn1c(CN2CCC(C(C)(C)O)CC2)nc2c(N3CCOCC3)nc(-c3c[nH]c4cc(F)ccc34)nc21` [Compound 124, 2-(1-((2-(6-fluoro-1H-indol-3-yl)-9-methyl-6-morpholino-9H-purin-8-yl)methyl)piperidin-4-yl)propan-2-ol], the “IC50 p110 alpha/IC50 p110 delta” value at p110 alpha is reported as more than 160. Also, the pIC50 on p110 delta is 6.21.
The like results for `CC(C)(OCCN1CCCC1)c1cc2nc(-c3c[nH]c4ccccc34)nc(N3CCOCC3)c2s1` [Compound 125] were, in that order, 63 and 8.08.
Take `COCc1cc2ccccc2n1-c1nc(N2CCOCC2)c2nc(CN3CCC(C(C)(C)O)CC3)n(C)c2n1` [Compound 127, 2-(1-((2-(2-(methoxymethyl)-1H-indol-1-yl)-9-methyl-6-morpholino-9H-purin-8-yl)methyl)piperidin-4-yl)propan-2-ol]: the “IC50 p110 alpha/IC50 p110 delta” value at p110 alpha was 186. In addition, the pIC50 is 6.05 in experiment [1] and 7.54 at p110 delta.
Consider `CC(C)(C(N)=O)N1CCN(Cc2cc3nc(-c4c(C#N)[nH]c5ccccc45)nc(N4CCOCC4)c3s2)CC1` [Compound 129, 2-(4-((2-(2-cyano-1H-indol-3-yl)-4-morpholinothieno[3,2-d]pyrimidin-6-yl)methyl)piperazin-1-yl)-2-methylpropanamide], for which the “IC50 p110 alpha/IC50 p110 delta” value at p110 alpha came out at 238. The pIC50 on p110 delta is 8.47.
For `CN(C)C1CCN(Cc2cc3nc(-n4ccc5cc(O)ccc54)nc(N4CCOCC4)c3s2)CC1` [Compound 132, 1-(6-((4-(dimethylamino)piperidin-1-yl)methyl)-4-morpholinothieno[3,2-d]pyrimidin-2-yl)-1H-indol-5-ol] the same measures were 37 and 7.66.
`Cn1c(CN2CCC(C(C)(C)O)CC2)nc2c(N3CCOCC3)nc(-n3c(C#N)cc4ccccc43)nc21` [Compound 136, 1-(8-((4-(2-hydroxypropan-2-yl)piperidin-1-yl)methyl)-9-methyl-6-morpholino-9H-purin-2-yl)-1H-indole-2-carbonitrile]: on p110 alpha, the “IC50 p110 alpha/IC50 p110 delta” value amounted to 265. Also, the pIC50 in experiment [1] is 5.34; at p110 delta, 7.70.
